Results reported in the kinase profiling compilation of Christmann-Franck et al. (2016).

Assays:
Assay in all cases: radiometric filter-binding kinase assay, Kinaseprofiler
NEK7 (human) = NEK7 (human) (UniProt Q8TDX7); conditions: ATP 45 µM
TYRO3 (human) = TYRO3 (human) (UniProt Q06418); conditions: ATP 45 µM
ABL1 (human) = ABL1 (human) (UniProt P00519); conditions: ATP 10 µM
STK10 (human) = STK10 (human) (UniProt O94804); conditions: ATP 200 µM
FGR (human) = FGR (human) (UniProt P09769); conditions: ATP 45 µM
TAOK2 (human) = TAOK2 (human) (UniProt Q9UL54); conditions: ATP 15 µM
DMPK (human) = DMPK (human) (UniProt Q09013); conditions: ATP 10 µM
ERBB4 (human) = ERBB4 (human) (UniProt Q15303); conditions: ATP 15 µM
EPHA7 (human) = EPHA7 (human) (UniProt Q15375); conditions: ATP 90 µM
MAP2K1 (human) = MAP2K1 (human) (UniProt Q02750); conditions: ATP 10 µM
PDGFRA (human) = PDGFRA (human) (UniProt P16234); conditions: ATP 120 µM
IRAK1 (human) = IRAK1 (human) (UniProt P51617); conditions: ATP 45 µM
MAPK14 (human) = MAPK14 (human) (UniProt Q16539); conditions: ATP 90 µM
PIM3 (human) = PIM3 (human) (UniProt Q86V86); conditions: ATP 155 µM
ABL2 (human) = ABL2 (human) (UniProt P42684); conditions: ATP 45 µM
CAMK4 (human) = CAMK4 (human) (UniProt Q16566); conditions: ATP 10 µM
TSSK1B (human) = TSSK1B (human) (UniProt Q9BXA7); conditions: ATP 15 µM
CDK2 CCNE1 (human) = CDK2 CCNE1 (human) (UniProt P24941+P24864); conditions: ATP 120 µM
BTK (human) = BTK (human) (UniProt Q06187); conditions: ATP 200 µM
PLK3 (human) = PLK3 (human) (UniProt Q9H4B4); conditions: ATP 70 µM
BRSK1 (human) = BRSK1 (human) (UniProt Q8TDC3); conditions: ATP 200 µM
EPHB4 (human) = EPHB4 (human) (UniProt P54760); conditions: ATP 10 µM
PAK4 (human) = PAK4 (human) (UniProt O96013); conditions: ATP 10 µM
DAPK3 (human) = DAPK3 (human) (UniProt O43293); conditions: ATP 15 µM
PDPK1 (human) = PDPK1 (human) (UniProt O15530); conditions: ATP 10 µM
GSG2 (human) = GSG2 (human) (UniProt Q8TF76); conditions: ATP 70 µM
NEK3 (human) = NEK3 (human) (UniProt P51956); conditions: ATP 120 µM
DAPK1 (human) = DAPK1 (human) (UniProt P53355); conditions: ATP 70 µM
TAOK1 (human) = TAOK1 (human) (UniProt Q7L7X3); conditions: ATP 10 µM
CAMK1 (human) = CAMK1 (human) (UniProt Q14012); conditions: ATP 200 µM
[1] = target: JAK3 JH1 catalytic (human) (UniProt P52333); conditions: ATP 10 µM
TSSK2 (human) = TSSK2 (human) (UniProt Q96PF2); conditions: ATP 15 µM
CAMK2D (human) = CAMK2D (human) (UniProt Q13557); conditions: ATP 10 µM

Sequence of MAP2K1 (human) (Q02750 whole entry, looked up): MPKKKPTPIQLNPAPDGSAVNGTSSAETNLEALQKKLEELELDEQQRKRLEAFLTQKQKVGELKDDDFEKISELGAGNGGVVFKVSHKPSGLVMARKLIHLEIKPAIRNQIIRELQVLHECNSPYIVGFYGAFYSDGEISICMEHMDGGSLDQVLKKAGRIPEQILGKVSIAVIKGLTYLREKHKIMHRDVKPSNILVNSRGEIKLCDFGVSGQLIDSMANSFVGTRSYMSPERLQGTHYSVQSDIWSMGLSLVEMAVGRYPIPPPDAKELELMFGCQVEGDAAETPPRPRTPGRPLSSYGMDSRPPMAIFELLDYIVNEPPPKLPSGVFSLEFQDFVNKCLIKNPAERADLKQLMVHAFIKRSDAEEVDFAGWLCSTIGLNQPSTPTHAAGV
Sequence of DAPK1 (human) (P53355 whole entry, looked up): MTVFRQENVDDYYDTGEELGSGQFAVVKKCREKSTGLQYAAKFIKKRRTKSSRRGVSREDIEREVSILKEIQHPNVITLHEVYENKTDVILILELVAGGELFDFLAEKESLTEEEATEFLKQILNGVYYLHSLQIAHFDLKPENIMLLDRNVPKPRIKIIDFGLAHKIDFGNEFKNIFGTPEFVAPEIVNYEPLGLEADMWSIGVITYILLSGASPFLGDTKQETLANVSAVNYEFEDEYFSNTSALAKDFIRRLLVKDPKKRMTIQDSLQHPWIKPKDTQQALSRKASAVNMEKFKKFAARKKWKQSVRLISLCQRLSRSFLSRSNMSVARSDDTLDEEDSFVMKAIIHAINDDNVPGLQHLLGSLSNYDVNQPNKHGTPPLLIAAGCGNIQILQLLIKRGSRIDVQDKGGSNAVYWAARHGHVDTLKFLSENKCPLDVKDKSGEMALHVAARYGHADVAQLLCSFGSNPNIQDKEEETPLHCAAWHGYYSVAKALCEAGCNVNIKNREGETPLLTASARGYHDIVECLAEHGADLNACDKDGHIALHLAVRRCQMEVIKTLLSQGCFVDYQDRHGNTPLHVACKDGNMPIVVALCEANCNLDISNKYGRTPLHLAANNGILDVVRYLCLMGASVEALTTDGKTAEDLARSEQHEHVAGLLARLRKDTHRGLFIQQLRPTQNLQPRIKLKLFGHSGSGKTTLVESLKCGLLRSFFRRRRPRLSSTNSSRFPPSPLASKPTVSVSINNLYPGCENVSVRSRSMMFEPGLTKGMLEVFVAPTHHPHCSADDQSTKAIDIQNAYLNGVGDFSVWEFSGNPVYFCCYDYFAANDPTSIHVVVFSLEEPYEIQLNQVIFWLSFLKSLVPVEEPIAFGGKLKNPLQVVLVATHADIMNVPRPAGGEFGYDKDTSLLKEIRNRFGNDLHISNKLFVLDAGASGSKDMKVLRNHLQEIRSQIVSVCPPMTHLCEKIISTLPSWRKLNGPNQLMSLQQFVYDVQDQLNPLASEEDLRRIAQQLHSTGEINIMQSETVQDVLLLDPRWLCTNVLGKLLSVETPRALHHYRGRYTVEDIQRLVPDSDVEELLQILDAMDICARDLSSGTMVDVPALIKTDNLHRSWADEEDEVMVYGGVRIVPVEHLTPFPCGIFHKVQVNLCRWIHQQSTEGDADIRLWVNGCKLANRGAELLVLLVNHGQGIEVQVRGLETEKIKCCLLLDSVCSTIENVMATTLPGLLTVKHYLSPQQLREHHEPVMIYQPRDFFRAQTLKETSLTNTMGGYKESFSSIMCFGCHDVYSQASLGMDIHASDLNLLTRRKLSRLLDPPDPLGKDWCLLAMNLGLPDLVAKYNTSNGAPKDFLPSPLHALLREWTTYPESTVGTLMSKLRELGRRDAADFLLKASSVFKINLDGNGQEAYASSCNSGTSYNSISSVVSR
Sequence of EPHA7 (human) (Q15375 whole entry, looked up): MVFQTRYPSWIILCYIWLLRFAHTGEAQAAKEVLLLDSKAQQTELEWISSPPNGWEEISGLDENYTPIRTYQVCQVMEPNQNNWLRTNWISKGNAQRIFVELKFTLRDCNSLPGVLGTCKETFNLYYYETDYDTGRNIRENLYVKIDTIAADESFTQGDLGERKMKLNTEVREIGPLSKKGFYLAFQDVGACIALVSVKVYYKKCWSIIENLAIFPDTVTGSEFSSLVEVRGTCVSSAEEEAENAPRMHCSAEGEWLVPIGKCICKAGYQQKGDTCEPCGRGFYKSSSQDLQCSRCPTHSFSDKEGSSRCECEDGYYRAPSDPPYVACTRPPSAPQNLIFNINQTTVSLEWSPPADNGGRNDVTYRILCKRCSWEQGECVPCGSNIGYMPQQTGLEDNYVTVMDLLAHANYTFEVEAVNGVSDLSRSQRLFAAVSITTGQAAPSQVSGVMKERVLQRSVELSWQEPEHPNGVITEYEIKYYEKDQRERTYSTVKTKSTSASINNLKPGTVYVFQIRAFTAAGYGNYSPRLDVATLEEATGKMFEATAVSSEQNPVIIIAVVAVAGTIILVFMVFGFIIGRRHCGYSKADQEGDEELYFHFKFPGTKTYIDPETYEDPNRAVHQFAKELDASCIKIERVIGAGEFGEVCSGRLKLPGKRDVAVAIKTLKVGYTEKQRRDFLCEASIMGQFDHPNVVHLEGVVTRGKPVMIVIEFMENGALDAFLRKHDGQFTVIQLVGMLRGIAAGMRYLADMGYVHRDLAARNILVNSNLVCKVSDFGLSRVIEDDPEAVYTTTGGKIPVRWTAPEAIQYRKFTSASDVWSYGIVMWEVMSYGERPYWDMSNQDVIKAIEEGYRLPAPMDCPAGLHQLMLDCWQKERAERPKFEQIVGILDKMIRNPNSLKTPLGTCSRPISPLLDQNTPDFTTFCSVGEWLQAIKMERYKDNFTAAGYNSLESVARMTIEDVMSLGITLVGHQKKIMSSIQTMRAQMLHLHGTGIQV
Sequence of PAK4 (human) (O96013 whole entry, looked up): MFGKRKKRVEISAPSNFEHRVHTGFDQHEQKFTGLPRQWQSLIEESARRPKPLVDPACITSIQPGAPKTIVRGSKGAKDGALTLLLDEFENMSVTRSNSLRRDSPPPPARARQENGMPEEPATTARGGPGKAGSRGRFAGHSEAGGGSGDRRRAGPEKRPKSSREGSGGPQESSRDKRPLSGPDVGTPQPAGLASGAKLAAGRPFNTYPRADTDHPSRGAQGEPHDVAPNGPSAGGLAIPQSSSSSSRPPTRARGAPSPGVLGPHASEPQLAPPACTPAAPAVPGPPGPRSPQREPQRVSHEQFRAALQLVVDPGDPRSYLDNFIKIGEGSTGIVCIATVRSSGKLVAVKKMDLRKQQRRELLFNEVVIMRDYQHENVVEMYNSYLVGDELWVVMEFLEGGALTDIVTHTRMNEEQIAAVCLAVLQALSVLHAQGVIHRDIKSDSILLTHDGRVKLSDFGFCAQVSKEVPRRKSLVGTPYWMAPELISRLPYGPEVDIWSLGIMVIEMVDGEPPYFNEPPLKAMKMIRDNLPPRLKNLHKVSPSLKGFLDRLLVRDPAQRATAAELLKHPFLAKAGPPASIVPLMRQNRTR
Sequence of DAPK3 (human) (O43293 whole entry, looked up): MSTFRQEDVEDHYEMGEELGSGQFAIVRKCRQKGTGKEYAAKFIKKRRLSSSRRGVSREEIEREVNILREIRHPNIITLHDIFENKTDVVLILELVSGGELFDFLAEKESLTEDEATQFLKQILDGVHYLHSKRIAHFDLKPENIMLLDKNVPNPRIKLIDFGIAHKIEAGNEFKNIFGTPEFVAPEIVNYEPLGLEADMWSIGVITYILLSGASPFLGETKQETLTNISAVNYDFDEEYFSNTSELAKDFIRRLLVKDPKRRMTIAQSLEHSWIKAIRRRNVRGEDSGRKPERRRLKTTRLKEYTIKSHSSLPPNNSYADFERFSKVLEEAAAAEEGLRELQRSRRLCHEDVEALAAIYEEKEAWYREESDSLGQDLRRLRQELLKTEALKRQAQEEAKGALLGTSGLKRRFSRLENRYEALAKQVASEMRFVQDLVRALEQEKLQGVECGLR
Sequence of PDPK1 (human) (O15530 whole entry, looked up): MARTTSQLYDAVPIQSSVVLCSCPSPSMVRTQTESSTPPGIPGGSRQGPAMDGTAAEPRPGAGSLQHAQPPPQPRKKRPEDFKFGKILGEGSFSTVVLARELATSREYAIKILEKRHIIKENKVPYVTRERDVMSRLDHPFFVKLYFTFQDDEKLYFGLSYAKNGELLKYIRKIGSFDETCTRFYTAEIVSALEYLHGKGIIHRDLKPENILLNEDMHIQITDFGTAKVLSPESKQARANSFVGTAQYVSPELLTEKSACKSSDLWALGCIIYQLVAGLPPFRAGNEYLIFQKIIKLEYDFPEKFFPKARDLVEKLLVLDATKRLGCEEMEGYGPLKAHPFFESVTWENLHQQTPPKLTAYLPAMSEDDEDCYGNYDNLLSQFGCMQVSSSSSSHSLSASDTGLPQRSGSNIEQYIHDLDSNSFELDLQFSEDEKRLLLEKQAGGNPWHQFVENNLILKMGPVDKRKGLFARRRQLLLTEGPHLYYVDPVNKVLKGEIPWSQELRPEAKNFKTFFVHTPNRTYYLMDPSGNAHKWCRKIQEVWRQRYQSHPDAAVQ
Sequence of NEK7 (human) (Q8TDX7 whole entry, looked up): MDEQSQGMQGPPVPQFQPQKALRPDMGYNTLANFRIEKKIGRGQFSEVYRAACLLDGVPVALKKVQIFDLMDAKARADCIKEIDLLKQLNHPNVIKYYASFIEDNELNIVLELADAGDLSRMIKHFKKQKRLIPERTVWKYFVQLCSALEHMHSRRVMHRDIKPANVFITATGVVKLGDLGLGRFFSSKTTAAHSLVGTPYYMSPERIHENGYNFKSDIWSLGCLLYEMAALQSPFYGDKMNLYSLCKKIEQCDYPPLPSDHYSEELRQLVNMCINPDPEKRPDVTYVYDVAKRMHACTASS

residual activity (NEK7 (human); compound 1.0 µM): 106% | residual activity (NEK7 (human); compound 10.0 µM): 102% | residual activity (TYRO3 (human); compound 1.0 µM): 62% | residual activity (TYRO3 (human); compound 10.0 µM): 15% | residual activity (ABL1 (human); compound 1.0 µM): 49% | residual activity (ABL1 (human); compound 10.0 µM): 16% | residual activity (STK10 (human); compound 1.0 µM): 66% | residual activity (STK10 (human); compound 10.0 µM): 71% | residual activity (FGR (human); compound 1.0 µM): 8% | residual activity (FGR (human); compound 10.0 µM): 1% | residual activity (TAOK2 (human); compound 1.0 µM): 75% | residual activity (TAOK2 (human); compound 10.0 µM): 26% | residual activity (DMPK (human); compound 1.0 µM): 109% | residual activity (DMPK (human); compound 10.0 µM): 83% | residual activity (ERBB4 (human); compound 1.0 µM): 107% | residual activity (ERBB4 (human); compound 10.0 µM): 99% | residual activity (EPHA7 (human); compound 1.0 µM): 70% | residual activity (EPHA7 (human); compound 10.0 µM): 15% | residual activity (MAP2K1 (human); compound 1.0 µM): 64% | residual activity (MAP2K1 (human); compound 10.0 µM): 55% | residual activity (PDGFRA (human); compound 1.0 µM): 87% | residual activity (PDGFRA (human); compound 10.0 µM): 37% | residual activity (IRAK1 (human); compound 1.0 µM): 60% | residual activity (IRAK1 (human); compound 10.0 µM): 11% | residual activity (MAPK14 (human); compound 1.0 µM): 94% | residual activity (MAPK14 (human); compound 10.0 µM): 78% | residual activity (PIM3 (human); compound 1.0 µM): 94% | residual activity (PIM3 (human); compound 10.0 µM): 90% | residual activity (ABL2 (human); compound 1.0 µM): 30% | residual activity (ABL2 (human); compound 10.0 µM): 28% | residual activity (CAMK4 (human); compound 1.0 µM): 66% | residual activity (CAMK4 (human); compound 10.0 µM): 10% | residual activity (TSSK1B (human); compound 1.0 µM): 78% | residual activity (TSSK1B (human); compound 10.0 µM): 53% | residual activity (CDK2 CCNE1 (human); compound 1.0 µM): 6% | residual activity (CDK2 CCNE1 (human); compound 10.0 µM): -1% | residual activity (BTK (human); compound 1.0 µM): 31% | residual activity (BTK (human); compound 10.0 µM): 4% | residual activity (PLK3 (human); compound 1.0 µM): 96% | residual activity (PLK3 (human); compound 10.0 µM): 91% | residual activity (BRSK1 (human); compound 1.0 µM): 13% | residual activity (BRSK1 (human); compound 10.0 µM): 12% | residual activity (EPHB4 (human); compound 1.0 µM): 67% | residual activity (EPHB4 (human); compound 10.0 µM): 13% | residual activity (PAK4 (human); compound 1.0 µM): 55% | residual activity (PAK4 (human); compound 10.0 µM): 14% | residual activity (DAPK3 (human); compound 1.0 µM): 81% | residual activity (DAPK3 (human); compound 10.0 µM): 37% | residual activity (PDPK1 (human); compound 1.0 µM): 53% | residual activity (PDPK1 (human); compound 10.0 µM): 9% | residual activity (GSG2 (human); compound 1.0 µM): 26% | residual activity (GSG2 (human); compound 10.0 µM): 19% | residual activity (NEK3 (human); compound 1.0 µM): 86% | residual activity (NEK3 (human); compound 10.0 µM): 94% | residual activity (DAPK1 (human); compound 1.0 µM): 91% | residual activity (DAPK1 (human); compound 10.0 µM): 67% | residual activity (TAOK1 (human); compound 1.0 µM): 83% | residual activity (TAOK1 (human); compound 10.0 µM): 39% | residual activity (CAMK1 (human); compound 1.0 µM): 72% | residual activity (CAMK1 (human); compound 10.0 µM): 21% | residual activity ([1]; compound 1.0 µM): 21% | residual activity ([1]; compound 10.0 µM): 2% | residual activity (TSSK2 (human); compound 1.0 µM): 95% | residual activity (TSSK2 (human); compound 10.0 µM): 78% | residual activity (CAMK2D (human); compound 1.0 µM): 10% | residual activity (CAMK2D (human); compound 10.0 µM): 2%
Compound: O=C1Nc2ccccc2/C1=C1\Nc2ccccc2\C1=N/O
